{"source": "patent US20260158172A1", "about": "“CELL DEATH METHOD USING CRISPR/CAS SYSTEM HAVING SINGLE-STRAND BREAK ACTIVITY AND PARP INHIBITOR” (INSTITUTE FOR BASIC SCIENCE, priority 2023, published 2026)", "type_in_all_cases": "cell-based", "key": {"HCT-116 cells [1]": {"test_system": "HCT-116 cells", "test": "Cell viability (CellTiter-Glo), Experimental Example 4: dependence on olaparib concentration", "conditions": "nCas9 D10A RNP or siRNA co-treatment, Non-treated (label Olaparib) = PARP inhibitor only", "procedure": "(§1) To transfect RNPs, cells were transfected with 665 ng of the Cas protein of each Embodiment and 95 ng of the sgRNA of each Embodiment using a Lipofectamine CRISPRMAX Cas9 Transfection Reagent (Invitrogen, #CMAX00015), and then cultured for 3 days. When treated together with a PARP inhibitor, the PARP inhibitor was treated according to Experimental Example 1.6, and the RNPs were treated one day thereafter.\n(§2) To compare cell death effects depending on the concentration of a PARP inhibitor administered, the following experiment was performed. Specifically, Hela cells and HCT-116 cells cultured according to Experimental Example 1.1 were treated with a PARP inhibitor (olaparib) and a CRISPR/nCas composition for cell death having the compositions shown in the following table.\n(§3) For each labeled material, experiments were conducted while varying the concentration of olaparib.\n(§4) Here, in the case of siRNA, an siRNA having the sequence […] (SEQ ID NO: 40) was used, and 20 pmole thereof was delivered to the cells according to Experimental Example 1.7. After the experiment, cell viability was measured according to Experimental Example 1.8."}, "HeLa cells [2]": {"test_system": "HeLa cells", "test": "Cell viability (CellTiter-Glo), Experimental Example 4: dependence on olaparib concentration", "conditions": "nCas9 D10A RNP or siRNA co-treatment, Non-treated (label Olaparib) = PARP inhibitor only", "procedure": "as §1, §2, §3, §4"}, "HCT-116 cells [3]": {"test_system": "HCT-116 cells", "test": "Cell viability (CellTiter-Glo), Experimental Example 5: type of PARP inhibitor", "conditions": "olaparib 1 μM, rucaparib 1 μM, niraparib 0.1 μM, veliparib 2 μM", "procedure": "(§5) A total of 0.5×10^4 cells were mixed with 1 μM olaparib (AZD2281) (Selleckchem, #S1060), 1 μM rucaparib (Selleckchem, #S4948), 0.1 μM niraparib (MK-4827) (Selleckchem, #S2741), 2 μM veliparib (ABT-888) (Selleckchem, #S1004), or 10 µM iniparib (BSI-201) (Selleckchem, #S1087), and seeded onto 24-well plates.\nas §1\n(§6) Cell viability was measured using a CellTiter-Glo Luminescent Cell Viability Assay (Promega, #G7571). After the transfected cells were cultured for 3 days, the cells were detached using Trypsin-EDTA (0.25%) (Gibco, #25200056). The cells were diluted in 400 μL of DMEM, followed by dispensing 100 μL of the cells, mixed with 100 μL of the CellTiter-Glo Reagent, and then incubated at room temperature for 10 minutes. Luminescence signals were measured using an Infinite 200 (Tecan) in a white opaque 96-well plate (Corning, #3917).\n(§7) Specifically, Hela cells and HCT-116 cells cultured according to Experimental Example 1.1 were treated with a PARP inhibitor and a CRISPR/nCas composition for cell death having the compositions shown in the following table.\n(§8) For each RNP composition of the embodiment using nCas9^D10A, one PARP inhibitor selected from olaparib, rucaparib, niraparib, veliparib, and iniparib was co-administered. DMSO was used as a control.\n(§9) The Cas protein and the nCas protein used in this experiment were prepared according to Experimental Example 1.2, and the sgRNA used was prepared according to Experimental Example 1.3. The nCas protein and the sgRNA were administered to the cells in the form of RNPs according to Experimental Example 1.7. The cells were each treated with the respective PARP inhibitors at the concentrations disclosed in Experimental Example 1.6 using the materials disclosed in the above table.\n(§10) Thereafter, cell viability was measured according to Experimental Example 1.8."}, "HeLa cells [4]": {"test_system": "HeLa cells", "test": "Cell viability (CellTiter-Glo), Experimental Example 5: type of PARP inhibitor", "conditions": "olaparib 1 μM, rucaparib 1 μM, niraparib 0.1 μM, veliparib 2 μM", "procedure": "as §5, §1, §6, §7, §8, §9, §10"}, "[5]": {"conditions": "olaparib 10 μM, listed as olaparib"}, "[6]": {"conditions": "PARP inhibitor with nCas9^D10A, Target = Mock (PBS instead of sgRNA)"}, "[7]": {"conditions": "drug_only (no Cas protein, no guide RNA)"}}, "data": [{"compound": "O=C(c1cc(Cc2n[nH]c(=O)c3ccccc23)ccc1F)N1CCN(C(=O)C2CC2)CC1", "note": "[Olaparib, olaparib]", "values": [{"measurement": "Relative cell viability (average, n = 3)", "setting": "HCT-116 cells [1]; olaparib 0.0001 μM", "value": 1.0000}, {"measurement": "Relative cell viability (average, n = 3)", "setting": "HCT-116 cells [1]; olaparib 0.001 μM", "value": 0.9939}, {"measurement": "Relative cell viability (average, n = 3)", "setting": "HCT-116 cells [1]; olaparib 0.01 μM", "value": 0.9743}, {"measurement": "Relative cell viability (average, n = 3)", "setting": "HCT-116 cells [1]; olaparib 0.1 μM", "value": 1.0072}, {"measurement": "Relative cell viability (average, n = 3)", "setting": "HCT-116 cells [1]; olaparib 1 μM", "value": 1.0307}, {"measurement": "Relative cell viability (average, n = 3)", "setting": "HCT-116 cells [1]; olaparib 10 μM", "value": 0.7979}, {"measurement": "Relative cell viability (average, n = 3)", "setting": "HCT-116 cells [1]; [5]", "value": "exhibits cytotoxicity"}, {"measurement": "Relative cell viability (average, n = 3)", "setting": "HeLa cells [2]; olaparib 0.0001 μM", "value": 1.0000}, {"measurement": "Relative cell viability (average, n = 3)", "setting": "HeLa cells [2]; olaparib 0.001 μM", "value": 0.9810}, {"measurement": "Relative cell viability (average, n = 3)", "setting": "HeLa cells [2]; olaparib 0.01 μM", "value": 0.9959}, {"measurement": "Relative cell viability (average, n = 3)", "setting": "HeLa cells [2]; olaparib 0.1 μM", "value": 0.9391}, {"measurement": "Relative cell viability (average, n = 3)", "setting": "HeLa cells [2]; olaparib 1 μM", "value": 0.9279}, {"measurement": "Relative cell viability (average, n = 3)", "setting": "HeLa cells [2]; olaparib 10 μM", "value": 0.1192}, {"measurement": "Relative cell viability (average, n = 3)", "setting": "HeLa cells [2]; [5]", "value": "exhibits cytotoxicity"}, {"measurement": "Relative cell viability (average, n = 3)", "setting": "HCT-116 cells [3]; [6]", "value": 1.0164}, {"measurement": "Relative cell viability (average, n = 3)", "setting": "HCT-116 cells [3]; [7]", "value": 1.1219}, {"measurement": "Relative cell viability (average, n = 3)", "setting": "HeLa cells [4]; [6]", "value": 0.9135}, {"measurement": "Relative cell viability (average, n = 3)", "setting": "HeLa cells [4]; [7]", "value": 0.8856}]}]}
